Blank lines part the entries; values can stand above or below the compound they belong to.
Tests used:
Format in all cases: binding
[1] = molecular target: T1, galectin-4N (human galectin-4 N-terminal CRD) (Homo sapiens, UniProt P56470); assay: X-ray crystal structure ([…] Å) and competitive fluorescence anisotropy
T1 construct: gene LGALS4
T1 sequence (P56470 1-154): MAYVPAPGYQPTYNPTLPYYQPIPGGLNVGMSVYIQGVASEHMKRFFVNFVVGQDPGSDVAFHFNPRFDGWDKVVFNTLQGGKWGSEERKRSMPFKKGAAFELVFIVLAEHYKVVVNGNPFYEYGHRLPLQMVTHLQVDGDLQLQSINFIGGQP

[2] = molecular target: T1, galectin-4N (human galectin-4 N-terminal CRD); assay: as above; remark: listed apart in the source
[3] = molecular target: T1, galectin-4N (human galectin-4 N-terminal CRD); assay: as above; remark: listed apart in the source
[4] = molecular target: T2, galectin-4N (human galectin-4 N-terminal CRD) (Homo sapiens, UniProt P56470); assay: competitive fluorescence anisotropy
T2 construct: gene LGALS4; N-terminal CRD (galectin-4N)
T2 sequence (P56470 1-154 limits assumed): T1 sequence (P56470 1-154)

Kd [1]: 510 µM
Compound: O=S(=O)(O)O[C@H]1[C@@H](O)[C@@H](CO)O[C@@H](O[C@H]2[C@H](O)[C@@H](O)C(O)O[C@@H]2CO)[C@@H]1O (stereo partly shown) [3′SuL, lactose-3′-sulfate]

Compound: C[C@@H]1O[C@@H](O[C@H]2[C@H](O[C@H]3[C@H](O)[C@@H](O)C(O)O[C@@H]3CO)O[C@H](CO)[C@H](O)[C@@H]2O)[C@@H](O)[C@H](O)[C@@H]1O (stereo partly shown) [2′FL, 2′-fucosyllactose]
Kd [2]: 380 µM

Compound: OC[C@H]1O[C@@H](O[C@H]2[C@H](O)[C@@H](O)C(O)O[C@@H]2CO)[C@H](O)[C@@H](O)[C@H]1O (stereo partly shown) [lactose]
Kd [3]: 1300 µM

Kd [4]: 164 µM
Compound: CC(=O)N[C@H]1[C@@H](O[C@H]2[C@@H](O)[C@@H](CO)O[C@@H](O[C@H]3[C@H](O)[C@@H](O)C(O)O[C@@H]3CO)[C@@H]2O[C@@H]2O[C@@H](C)[C@@H](O)[C@@H](O)[C@@H]2O)O[C@H](CO)[C@H](O)[C@@H]1O (stereo partly shown) [A-tetrasaccharide]

— article PMC4734333, “Structural characterisation of human galectin-4 N-terminal carbohydrate recognition domain in complex with glycerol, lactose, 3′-sulfo-lactose, and 2′-fucosyllactose” (Scientific Reports, 2016)
